Test results as given in patent US20210317109A1, “TRICYCLIC SUBSTITUTED PIPERIDINE DIONE COMPOUND” (MEDSHINE DISCOVERY INC., priority 2018, published 2021).
pIC50: −log10 of the molar value. Structures can show the parent of a compound that is named as a salt.

Legend:
[1] = Pharmacokinetic properties of test compound in mice (oral); type: in vivo, C57BL male mice; details: for oral plasma systemic exposures (AUC0-inf), in words / Area under the drug-time curve (0-inf) / Peak concentration / Time to peak: mice; for Area under the drug-time curve (0-inf) / Peak concentration / Time to peak: oral 10 mg/kg, plasma; for pharmacokinetic properties, in words: rodent mice
Text: In this study, C57BL male mice were selected as the test animals. A LC-MS/MS method was used to quantitatively determine the drug concentration in the plasma after oral administration of the test compound and the reference compound, to evaluate the pharmacokinetic profile of the test compound in mice.
C57Balb/c (C57) mice (male, 20-30 g, 7-10 weeks old, Beijing Vital River or Shanghai SLAC).
A clear solution or suspension of the test compound was administrated to C57 mice (fasted overnight) by oral gavage. Blood was collected from jugular vein at pre-dose and 0.5, 1, 2, 4, 6, 8, 24 hours post-dose, the collected blood samples were placed in an anticoagulant tube (Jiangsu Kangjian Medical Co., Ltd.) supplemented with EDTA-K2, and the mixture was vortexed and centrifuged at 13000 rpm for 10 minutes. The LC-MS/MS method was used to determine the plasma concentration of test compounds, and the relevant pharmacokinetic parameters were calculated using non-compartmental model linear logarithmic trapezoidal method by WinNonlinTM Version 6.3 (Pharsight, Mountain View, Calif.).

DOHH2 cell line = test: Anti-proliferative effect in lymphoma cell line DOHH2 (CellTiter-Glo); type: cell-based; details: Homo sapiens, DOHH-2, 96 h; incubate with the compound for 4 days
Procedure: (§1) Experiment object: In this experiment, the inhibitory effects of the test compounds on cell proliferation in the diffuse large B-cell lymphoma cell lines OCI-LY10 and DOHH2, and the mantle cell lymphoma cell line Mino were tested.
(§2) The tumor cell lines were cultured in an incubator at 37° C. and 5% CO2 under the above-mentioned culture conditions. The cells were passaged regularly, and cells in the logarithmic growth phase were taken for planting.
(§3) (1). The cells were stained with trypan blue and live cells were counted.
(§4) (2). The cell concentration was adjusted to an appropriate concentration.
(§5) (3). 90 μL of cell suspension was added to each well of the culture plate as shown in the table above, and cell-free culture solution was added to the blank control well.
(§6) (4). The culture plates were incubated overnight at 37° C., 5% CO2, and 100% relative humidity in an incubator.
(§7) The mother liquor storage plate with a compound concentration of 400 times the working concentration of the compound was prepared: The compound was gradually diluted with DMSO from the highest concentration to the lowest concentration. The compound was freshly formulated when use every time.
(§8) (1). Formulation of a working solution with a compound concentration of […] the working concentration of the compound: 76 μL of cell culture solution was added to a 96-well plate with a V-shaped bottom, and 4 μL of the compound was pipetted from the mother liquor storage plate with a compound concentration of […] the working concentration of the compound to the cell culture solution of the 96-well plate. 4 μL of DMSO was added to the vehicle control and blank control. After adding the compound or DMSO, a multi-channel pipette was used for pipetting and mixing well. […]
(§9) The following steps followed the instructions of Promega CellTiter-Glo Luminescence Cell Viability Detection Kit (Promega-G7573). […]
(§10) (8). The culture plates were left at room temperature for 10 minutes to stabilize the luminescence signal.
(§11) (9). The luminous signal was detected on the 2104 EnVision plate reader. […]

[2] = test system: human lymphoma OCI-LY10 cells subcutaneous xenograft tumor
Procedure: Cells culture: Human lymphoma OCI-LY10 cells (National Cancer Institute) were cultured in a monolayer in vitro. The culture conditions were RPMI-1640 medium with 10% fetal bovine serum, 100 U/mL penicillin and […] streptomycin, 37° C., 5% CO2 incubator culture. Conventional digestion treatment with pancreatin-EDTA for passage was carried out twice a week. When the cell saturation was 80% to 90%, and the number reached the requirement, the cells were collected, counted and inoculated.
Animal: CB-17 SCID mouse, female, 6-8 weeks old, weighing 18-22 grams. Protocols:
0.2 mL (10×10^6 cells) of OCI-LY10 cells (with matrigel in a volume ratio of 1:1) were subcutaneously inoculated on the right back of each mouse. The grouping and administration were started when the average tumor volume reached about 139 mm^3. One dosing cycle was seven days, and the compound was administered once a day with an interval of 24 hours. The test compound was administered orally for a total of four cycles. The dose of the test compound WX002 was 60 mg/kg, the tumor volume was measured twice a week with a two-dimensional caliper, and the volume was measured in cubic millimeters, calculated by the following formula: V =0.5a×b^2, in which a and b were the long diameter and short diameter of the tumor, respectively. The anti-tumor efficacy was determined by dividing average increase of tumor volume of animals treated with the compound by that of untreated animals.

OCI-LY10 cell line = test: Anti-proliferative effect in lymphoma cell line OCI-LY10 (CellTiter-Glo); type: cell-based; details: Homo sapiens, OCI-Ly10, 120 h; incubate with the compound for 5 days
Procedure: as §1, §2, §3, §4, §5
(4). The culture plates were incubated overnight at 37° C., 5% CO2, and 100% relative humidity in an incubator. […]
as §9, §10, §11

Mino cell line = test: Anti-proliferative effect in mantle cell lymphoma cell line Mino (CellTiter-Glo); type: cell-based; details: Homo sapiens, 96 h, incubate with the compound for 4 days
Procedure: as §1, §2, §3, §4, §5, §6, §7, §8, §9, §10, §11

[3] = 60 mg/kg oral once a day, Day 27

CCOC(=O)Cc1coc2ccc3cc(OCCN(C)C)ccc3c12 [Hydrochloride of WX008]
oral plasma systemic exposures (AUC0-inf), in words [1]: higher oral plasma systemic exposures | Area under the drug-time curve (0-inf) [1]: 10.27 µM·h | Peak concentration [1]: 4.88 µM | Time to peak [1]: 1.00 h | pharmacokinetic properties, in words [1]: better pharmacokinetic properties

O=C1CCC(c2coc3ccc4cc(OCCN5CCOCC5)ccc4c23)C(=O)N1 (centres unmarked) [Hydrochloride of WX020]
oral plasma systemic exposures (AUC0-inf), in words [1]: higher oral plasma systemic exposures | Area under the drug-time curve (0-inf) [1]: 18.38 µM·h | Peak concentration [1]: 8.56 µM | Time to peak [1]: 0.25 h | pharmacokinetic properties, in words [1]: better pharmacokinetic properties

O=C1CCC(c2coc3ccc4ccccc4c23)C(=O)N1 (centres unmarked) [WX002]
Area under the drug-time curve (0-inf) [1]: 2.49 µM·h | Peak concentration [1]: 2.83 µM | Time to peak [1]: 0.50 h | pIC50 (DOHH2 cell line): 7.01 | Tumor volume (Day 1) ([2]; 60 mg/kg oral once a day, Day 1 (start of administration)): 139 ± 10 mm^3 | TGI (Day 27) [2, 3]: 111% | Tumor volume (Day 27) [2, 3]: 35 ± 10 mm^3 | effect on the human lymphoma OCI-LY10 in vivo pharmacodynamic model, in words ([2]; mouse, in vivo): significant tumor-shrinking effect | pIC50 (OCI-LY10 cell line): 7.59 | pIC50 (Mino cell line): 8.10

O=C1CCC(c2coc3ccc4occc4c23)C(=O)N1 (centres unmarked) [WX004]
oral plasma systemic exposures (AUC0-inf), in words [1]: higher oral plasma systemic exposures | Area under the drug-time curve (0-inf) [1]: 5.50 µM·h | Peak concentration [1]: 6.54 µM | Time to peak [1]: 0.25 h | pharmacokinetic properties, in words [1]: better pharmacokinetic properties | pIC50 (DOHH2 cell line): 6.84 | pIC50 (OCI-LY10 cell line): 7.77 | pIC50 (Mino cell line): 8.15

Cc1cc2c(ccc3occ(C4CCC(=O)NC4=O)c32)o1 (centres unmarked) [WX005]
pIC50 (DOHH2 cell line): 6.78 | pIC50 (Mino cell line): 8.00

O=C1CCC(c2coc3ccc4[nH]ccc4c23)C(=O)N1 (centres unmarked) [WX007]
oral plasma systemic exposures (AUC0-inf), in words [1]: higher oral plasma systemic exposures | Area under the drug-time curve (0-inf) [1]: 7.79 µM·h | Peak concentration [1]: 12.95 µM | Time to peak [1]: 0.08 h | pharmacokinetic properties, in words [1]: better pharmacokinetic properties
